Results on 21 compounds are retold here after patent US20240140957A1, “BRIDGED COMPOUNDS AS KRAS G12D INHIBITOR AND DEGRADER AND THE USE THEREOF” (BeiGene Switzerland GmbH, priority 2021, published 2024).

Structures are written as SMILES. Where only a bound is given, the exact number is not on record here.

The target of the first assay is KRAS G12D:SOS1 (Homo sapiens, UniProt P01116, G12D). The experiment in a line: KRAS G12D:SOS1 GDP TR-FRET assay. The format is binding. The conditions noted are these: GST-KRAS G12D 37.5 nM, GDP 10 μM, His-SOS1 18 nM. Here is the method: (§1) KRAS:SOS1 GDP TR-FRET Assay
Sequence of KRAS G12D:SOS1 (P01116 1-188 isoform P01116-2 G12D): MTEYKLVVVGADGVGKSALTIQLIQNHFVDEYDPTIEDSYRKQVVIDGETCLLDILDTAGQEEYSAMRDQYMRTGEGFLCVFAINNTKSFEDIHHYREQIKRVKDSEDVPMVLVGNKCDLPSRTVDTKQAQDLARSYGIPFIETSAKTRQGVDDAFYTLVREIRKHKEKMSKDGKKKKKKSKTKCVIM
(§2) This assay was used to identify compounds which competitively interact with the binding of KRAS protein to SOS1 in the presence of GDP. […] All protein and reaction solutions were prepared in assay buffer containing DPBS pH7.5, 0.1% BSA, and 0.05% Tween 20. Purified GST-tagged WT KRAS or KRAS G12D protein (37.5 nM final assay concentration) and GDP (Sigma, 10 μM final assay concentration) mixture, a serially diluted compound (top final concentration is 50 μM or 10 uM, 3-fold serially diluted, 10 points) and His-tagged SOS1 protein (18 nM final assay concentration) were added into the assay plates (384 well microplate, black, Corning) sequentially. Plates are incubated at 24° C. for 1 hr. Following the incubation, Mab Anti-GST-Tb cryptate (Cisbio) and […] (Cisbio) were added and further incubated at 24° C. for another 1 hr. The TR-FRET signals (ex337 nm, em665 nm/620 nm) were read on BMG PHERAstar FSX instrument. The inhibition percentage of KRAS protein binding with SOS1 in presence of increasing concentrations of compounds was calculated based on the ratio of fluorescence at 665 nm to that at 620 nm. The IC50 value of each compound was calculated from fitting the data to the four-parameter logistic model by Dotmatics.
In general terms: TR-FRET usually uses a lanthanide donor and a delayed reading to cut background.
`CN(C)C1CN(c2nc(N3CCNCC3)c3cc(Cl)c(-c4cc(O)cc5ccccc45)c(F)c3n2)C1` [Example E2, 4-(6-chloro-2-(3-(dimethylamino)azetidin-1-yl)-8-fluoro-4-(piperazin-1-yl)quinazolin-7-yl)naphthalen-2-ol]: half-maximal inhibition (IC50) was put at 4850 nM.

Take `C[C@@H](CN1CC(F)(F)C1)Oc1nc(N2CC3CCC(C2)N3)c2cc(Cl)c(-c3ccc(F)c4sc(N)nc34)c(F)c2n1` [Example E32, 4-(4-(3,8-diazabicyclo[3.2.1]octan-3-yl)-6-chloro-2-(((S)-1-(3,3-difluoroazetidin-1-yl)propan-2-yl)oxy)-8-fluoroquinazolin-7-yl)-7-fluorobenzo[d]thiazol-2-amine]: the IC50 (as a rule, the midpoint of a concentration-inhibition curve) stood at 81 nM.

The next assay deals with WT KRAS:SOS1 (Homo sapiens, UniProt P01116). Put plainly: KRAS WT:SOS1 GDP TR-FRET assay. The following applies: GST-WT KRAS 37.5 nM, GDP 10 μM, His-SOS1 18 nM. Format: binding. Here is the method: as §1, §2
Sequence of WT KRAS:SOS1 (P01116 1-188 isoform P01116-2): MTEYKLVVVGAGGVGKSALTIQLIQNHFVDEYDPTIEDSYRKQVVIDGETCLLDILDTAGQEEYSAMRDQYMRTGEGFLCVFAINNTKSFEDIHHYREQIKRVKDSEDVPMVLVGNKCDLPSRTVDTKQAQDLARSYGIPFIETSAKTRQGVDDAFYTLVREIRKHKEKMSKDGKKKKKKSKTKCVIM
Take `CN(C)C1CN(c2nc(N3CCNCC3)c3cc(Cl)c(-c4cc(O)cc5ccccc45)c(F)c3n2)C1` [Example E2, 4-(6-chloro-2-(3-(dimethylamino)azetidin-1-yl)-8-fluoro-4-(piperazin-1-yl)quinazolin-7-yl)naphthalen-2-ol]: the IC50 is more than 50000 nM.

Turning to `C[C@@H](CN1CC(F)(F)C1)Oc1nc(N2CC3CCC(C2)N3)c2cc(Cl)c(-c3ccc(F)c4sc(N)nc34)c(F)c2n1` [Example E32, 4-(4-(3,8-diazabicyclo[3.2.1]octan-3-yl)-6-chloro-2-(((S)-1-(3,3-difluoroazetidin-1-yl)propan-2-yl)oxy)-8-fluoroquinazolin-7-yl)-7-fluorobenzo[d]thiazol-2-amine], the IC50 is more than 10000 nM.

A further assay deals with GDP-loaded KRAS G12D (Homo sapiens, UniProt P01116, G12D). The experiment in a line: KRAS G12D Probe Displacement Assay. Format: binding. The following applies: KRAS G12D 0.5 nM, biotinylated probe 2 4 nM; Table 6 letters; read-out: KRAS G12D Probe Displacement Assay IC50 (class).
Sequence of GDP-loaded KRAS G12D (P01116 1-188 isoform P01116-2 G12D): as the sequence (P01116 1-188 isoform P01116-2 G12D) above
As for `Nc1nc2c(-c3c(C(F)(F)F)cc4c(N5CC6CCC(C5)N6)nc(OC[C@@H]5COCCO5)nc4c3F)ccc(F)c2s1` [Example E219, 4-(2-(((S)-1,4-dioxan-2-yl)methoxy)-4-(3,8-diazabicyclo[3.2.1]octan-3-yl)-8-fluoro-6-(trifluoromethyl)quinazolin-7-yl)-7-fluorobenzo[d]thiazol-2-amine], the IC50 was less than 50 nM.

As for `Nc1nc2c(-c3c(C(F)(F)F)cc4c(N5CC6CCC(C5)N6)nc(OCC5CCCC5O)nc4c3F)ccc(F)c2s1` (centres unmarked) [Example E220], the IC50 lay in the range of 50 to 100 nM.

For the compound `Nc1nc2c(-c3c(C(F)(F)F)cc4c(N5CC6CCC(C5)N6)nc(OCC5(O)CCOCC5)nc4c3F)ccc(F)c2s1` [Example E221, 4-(((7-(2-amino-7-fluorobenzo[d]thiazol-4-yl)-4-(3,8-diazabicyclo [3.2.1]octan-3-yl)-8-fluoro-6-(trifluoromethyl)quinazolin-2-yl)oxy)methyl)tetrahydro-2H-pyran-4-ol], the IC50 was less than 50 nM.

As for `Nc1nc2c(-c3c(C(F)(F)F)cc4c(N5CC6CCC(C5)N6)nc(OCC56CC(O)(C5)C6)nc4c3F)ccc(F)c2s1` [Example E222, 3-(((7-(2-amino-7-fluorobenzo[d]thiazol-4-yl)-4-(3,8-diazabicyclo [3.2.1]octan-3-yl)-8-fluoro-6-(trifluoromethyl)quinazolin-2-yl)oxy)methyl)bicyclo[1.1.1]pentan-1-ol], the IC50 is less than 50 nM.

For the compound `CC(=O)N1CCCC(COc2nc(N3CC4CCC(C3)N4)c3cc(C(F)(F)F)c(-c4ccc(F)c5sc(N)nc45)c(F)c3n2)C1` (centres unmarked) [Example E223, 1-(3-(((7-(2-amino-7-fluorobenzo[d]thiazol-4-yl)-4-(3,8-diazabicyclo[3.2.1]octan-3-yl)-8-fluoro-6-(trifluoromethyl)quinazolin-2-yl)oxy)methyl)piperidin-1-yl)ethan-1-one], the IC50 is less than 50 nM.

`Cc1cc(N)nc(-c2c(Cl)cc3c(N4CC5CCC(C4)N5)nc(OCC45COC(C4)C5)nc3c2F)c1C(F)(F)F` [Example E224, 6-(2-((2-oxabicyclo[2.1.1]hexan-4-yl)methoxy)-4-(3,8-diazabicyclo[3.2.1]octan-3-yl)-6-chloro-8-fluoroquinazolin-7-yl)-4-methyl-5-(trifluoromethyl)pyridin-2-amine]: the IC50 is less than 50 nM.

With `Cc1cc(N)nc(-c2c(Cl)cc3c(N4CC5CCC(C4)N5)nc(OCC4(C)CCC(=O)NC4)nc3c2F)c1C(F)(F)F` (centres unmarked) [Example E225, 5-(((7-(6-amino-4-methyl-3-(trifluoromethyl)pyridin-2-yl)-4-(3,8-diazabicyclo[3.2.1]octan-3-yl)-6-chloro-8-fluoroquinazolin-2-yl)oxy)methyl)-5-methylpiperidin-2-one], the IC50 is less than 50 nM.

`CC(=O)N1CC(COc2nc(N3CC4CCC(C3)N4)c3cc(Cl)c(-c4nc(N)cc(C)c4C(F)(F)F)c(F)c3n2)C1` [Example E226, 1-(3-(((7-(6-amino-4-methyl-3-(trifluoromethyl)pyridin-2-yl)-4-(3,8-diazabicyclo[3.2.1]octan-3-yl)-6-chloro-8-fluoroquinazolin-2-yl)oxy)methyl)azetidin-1-yl)ethan-1-one]: the IC50 was less than 50 nM.

Consider `Cc1cc(N)nc(-c2c(Cl)cc3c(N4CC5CCC(C4)N5)nc(OCC4(CO)CC(F)C4)nc3c2F)c1C(F)(F)F` (centres unmarked) [Example E227, (1-(((7-(6-amino-4-methyl-3-(trifluoromethyl)pyridin-2-yl)-4-(3,8-diazabicyclo[3.2.1]octan-3-yl)-6-chloro-8-fluoroquinazolin-2-yl)oxy)methyl)-3-fluorocyclobutyl)methanol], for which the IC50 is less than 50 nM.

For `Cc1cc(N)nc(-c2c(Cl)cc3c(N4CC5CCC(C4)N5)nc(OCC4CS(=O)(=O)C4)nc3c2F)c1C(F)(F)F` [Example E228, 3-(((7-(6-amino-4-methyl-3-(trifluoromethyl)pyridin-2-yl)-4-(3,8-diazabicyclo[3.2.1]octan-3-yl)-6-chloro-8-fluoroquinazolin-2-yl)oxy)methyl)thietane 1,1-dioxide], the IC50 was less than 50 nM.

On to `Cc1cc(N)nc(-c2c(Cl)cc3c(N4CC5CCC(C4)N5)nc(OCC45CCC(CC4)OC5)nc3c2F)c1C(F)(F)F` [Example E229, 6-(2-((2-oxabicyclo[2.2.2]octan-4-yl)methoxy)-4-(3,8-diazabicyclo[3.2.1]octan-3-yl)-6-chloro-8-fluoroquinazolin-7-yl)-4-methyl-5-(trifluoromethyl)pyridin-2-amine], for which the IC50 is less than 50 nM.

For the compound `Cc1cc(N)nc(-c2c(Cl)cc3c(N4CC5CCC(C4)N5)nc(OCC4(CO)CCOC4)nc3c2F)c1C(F)(F)F` (centres unmarked) [Example E230, (3-(((7-(6-amino-4-methyl-3-(trifluoromethyl)pyridin-2-yl)-4-(3,8-diazabicyclo[3.2.1]octan-3-yl)-6-chloro-8-fluoroquinazolin-2-yl)oxy)methyl)tetrahydrofuran-3-yl)methanol], the IC50 is less than 50 nM.

`Cc1cc(N)nc(-c2c(Cl)cc3c(N4CC5CCC(C4)N5)nc(OCC4C5COCC54)nc3c2F)c1C(F)(F)F` (centres unmarked) [Example E231, 6-(2-((3-oxabicyclo[3.1.0]hexan-6-yl)methoxy)-4-(3,8-diazabicyclo[3.2.1]octan-3-yl)-6-chloro-8-fluoroquinazolin-7-yl)-4-methyl-5-(trifluoromethyl)pyridin-2-amine]: the IC50 was in the range of 100 to 1000 nM.

In the case of `CC(=O)N1CCC(COc2nc(N3CC4CCC(C3)N4)c3cc(Cl)c(-c4nc(N)cc(C)c4C(F)(F)F)c(F)c3n2)C1` (centres unmarked) [Example E232, 1-(3-(((7-(6-amino-4-methyl-3-(trifluoromethyl)pyridin-2-yl)-4-(3,8-diazabicyclo[3.2.1]octan-3-yl)-6-chloro-8-fluoroquinazolin-2-yl)oxy)methyl)pyrrolidin-1-yl)ethan-1-one], the IC50 was less than 50 nM.

On to `COC(C)(CO)COc1nc(N2CC3CCC(C2)N3)c2cc(Cl)c(-c3nc(N)cc(C)c3C(F)(F)F)c(F)c2n1` (centres unmarked) [Example E233, 3-((7-(6-amino-4-methyl-3-(trifluoromethyl)pyridin-2-yl)-4-(3,8-diazabicyclo[3.2.1]octan-3-yl)-6-chloro-8-fluoroquinazolin-2-yl)oxy)-2-methoxy-2-methyl propan-1-ol], for which the IC50 was less than 50 nM.

Regarding `CC(=O)N1CCCC(COc2nc(N3CC4CCC(C3)N4)c3cc(Cl)c(-c4nc(N)cc(C)c4C(F)(F)F)c(F)c3n2)C1` (centres unmarked) [Example E234, 1-(3-(((7-(6-amino-4-methyl-3-(trifluoromethyl)pyridine-2-yl)-4-(3,8-diazabicyclo[3.2.1]octan-3-yl)-6-chloro-8-fluoroquinazolin-2-yl)oxy)methyl)piperidin-1-yl)ethan-1-one], the IC50 lay within 50 to 100 nM.

In the case of `CC12CC(COc3nc(N4CC5CCC(C4)N5)c4cc(C(F)(F)F)c(-c5ccc(F)c6sc(N)c(C#N)c56)c(F)c4n3)(CO1)C2` [Example E235, 4-(4-(3,8-diazabicyclo[3.2.1]octan-3-yl)-8-fluoro-2-((1-methyl-2-oxabicyclo[2.1.1]hexan-4-yl)methoxy)-6-(trifluoromethyl)quinazolin-7-yl)-2-amino-7-fluoro benzo[b]thiophene-3-carbonitrile], the IC50 was less than 50 nM.

Consider `N#Cc1c(N)sc2c(F)ccc(-c3c(C(F)(F)F)cc4c(N5CC6CCC(C5)N6)nc(OCC56COC(C5)C6)nc4c3F)c12` [Example E236, 4-(2-((2-oxabicyclo[2.1.1]hexan-4-yl)methoxy)-4-(3,8-diazabicyclo[3.2.1]octan-3-yl)-8-fluoro-6-(trifluoromethyl)quinazolin-7-yl)-2-amino-7-fluorobenzo [b]thiophene-3-carbonitrile], for which the IC50 was less than 50 nM.

For `Nc1cc(-c2cc3nc(OC[C@@]45CCCN4C[C@H](F)C5)nc(N4CC5CCC(C4)N5)c3cc2Cl)c(C(F)(F)F)c(C(F)(F)F)c1` [Example E237, 3-(4-(3,8-diazabicyclo[3.2.1]octan-3-yl)-6-chloro-2-(((2R,7aS)-2-fluorotetrahydro-1H-pyrrolizin-7a(5H)-yl)methoxy)quinazolin-7-yl)-4,5-bis (trifluoromethyl) aniline], the IC50 is less than 50 nM.
